Data published in patent US11613531B2, “Inhibitors of RHO associated coiled-coil containing protein kinase” (Kadmon Corporation, LLC, priority 2017, dated 2023).

These molecules were tested on ppMlc (T18/S19) levels in A7R5 cells (assay: A7R5 in-cell ELISA (pMLC)). Conditions: A7R5 cells, 1 μM compound.
Type: cell-based, Rat
Protocol: Determination of Compounds ROCK Inhibitory Activity in A7R5Cells.
Rat aortic smooth muscle cell line, A7R5, cells were seeded with density of 5,000 cells/well in a 96-well plates for 24 hours and subsequently treated for 90 min with testing compounds. Cells were then fixed and processed according to the In-Cell ELISA Colorimetric Detection Kit manual (Thermo Scientific).
An A7R5 in-cell Elisa assay was performed. A7R5 cells were treated with 9 points 2 fold serial dilution of compounds and ppMlc (T18/S19) levels were determined to calculate cellular IC50 values of the compounds. Compounds of the invention gave in cell IC50s under 100 nM.
In vitro activities for the compounds were measured with Z′-lyte kinase kit (ThermoFisher Scientific). The percent inhibition rate was calculated by normalizing the kinase activity value obtained with 1 μM compound treatment against DMSO control value and then applied to the formula, [1-(compound/DMSO)]×100%. IC50s were calculated using the nonlinear regression curve fit function of the GraphPad Prism software with kinase activities data measured with 9 points 2-fold serial dilution of compounds treatment. In cell pMLC IC50s were calculated with data obtained from A7R5 cell experiments. A7R5 cells were treated with 9 points 2-fold serial dilution of compounds and ppMlc (T18/S19) levels were determined to calculate cellular IC50 values of the compounds using the nonlinear regression curve fit function of the GraphPad Prism software. NIH3T3 cells stably expressing ACTA2-promoter-driven-luciferase were applied to measure ROCK compounds functional IC50s in cells. Cells were plated in 96 well plates to confluence and treated with 9 points serial dilution of compounds in combination with TGFβ1 for 24 hr. Luciferase activities were measured and compound's IC50s were calculated using the nonlinear regression curve fit function of the GraphPad Prism software.

Structure (SMILES) | pMLC % inh A7R5 @ [conc]
c1cc(Nc2ccc3[nH]ncc3c2)nc(N2CCCC(C3CCCNC3)C2)n1 (stereo not shown) [Example 86, N-(2-([3,3′-bipiperidin]-1-yl)pyrimidin-4-yl)-1H-indazol-5-amine] | 377.49%

Same assay, conditions: A7R5 cells, 10 μM compound

Structure (SMILES) | pMLC % inh A7R5 @ [conc]
c1cc(Nc2ccc(-c3cncs3)cc2)nc(N2CCNCC2)n1 [Example 363] | 10.22%

Same assay, conditions: Rattus norvegicus, A7R5, A7R5 cells, 1 μM compound; read-out: pMLC % inh A7R5 @ [conc]

Structure (SMILES) | inhibition at 1 µM
c1cc(Nc2ccc3[nH]ncc3c2)nc(N2CCC3NCCC3C2)n1 (stereo not shown) [Example 80, N-(2-(octahydro-5H-pyrrolo[3,2-c]pyridin-5-yl)pyrimidin-4-yl)-1H-indazol-5-amine] | 11.9%
c1cc(Nc2ccc3[nH]ncc3c2)nc(N2CC3CNCC(C3)C2)n1 [Example 79, N-(2-(3,7-diazabicyclo[3.3.1]nonan-3-yl)pyrimidin-4-yl)-1H-indazol-5-amine] | 9.8%
Cc1cc(Nc2ccc3[nH]ncc3c2)nc(N2CCC3(CCCNC3)C2)n1 (stereo not shown) [Example 124, N-(6-methyl-2-(2,7-diazaspiro[4.5]decan-2-yl)pyrimidin-4-yl)-1H-indazol-5-amine] | -7.6%
Fc1cnc(N2CCC3(CC2)CNC3)nc1Nc1ccc2[nH]ncc2c1 [Example 158, N-(5-fluoro-2-(2,7-diazaspiro[3.5]nonan-7-yl)pyrimidin-4-yl)-1H-indazol-5-amine] | -1.1%
Cc1cc(Nc2ccc3[nH]ncc3c2)nc(N2CC3(CCNC3)C2)n1 [Example 126, N-(6-methyl-2-(2,6-diazaspiro[3.4]octan-2-yl)pyrimidin-4-yl)-1H-indazol-5-amine] | -12.3%
c1cc(Nc2ccc3[nH]ncc3c2)nc(N2CCC3(CC2)CNCCO3)n1 [Example 72, N-(2-(1-oxa-4,9-diazaspiro[5.5]undecan-9-yl)pyrimidin-4-yl)-1H-indazol-5-amine] | -6.7%
OCC1CNCCN1c1ncc(F)c(Nc2ccc3[nH]ncc3c2)n1 (stereo not shown) [Example 156, (1-(4-((1H-indazol-5-yl)amino)-5-fluoropyrimidin-2-yl)piperazin-2-yl)methanol] | 7.1%
c1cc(Nc2ccc3[nH]ncc3c2)nc(N2CCC3(CC2)CNC3)n1 [Example 70, N-(2-(2,7-diazaspiro[3.5]nonan-7-yl)pyrimidin-4-yl)-1H-indazol-5-amine] | -9.7%
c1cc(Nc2ccc3[nH]ncc3c2)nc(N2CC3(CNC3)C2)n1 [Example 77, N-(2-(2,6-diazaspiro[3.3]heptan-2-yl)pyrimidin-4-yl)-1H-indazol-5-amine] | -2.9%
Fc1cnc(N2CCCC3(CCNC3)C2)nc1Nc1ccc2[nH]ncc2c1 (stereo not shown) [Example 162, N-(5-fluoro-2-(2,7-diazaspiro[4.5]decan-7-yl)pyrimidin-4-yl)-1H-indazol-5-amine] | 16.7%
Fc1cnc(N2CC3(CCNC3)C2)nc1Nc1ccc2[nH]ncc2c1 [Example 163, N-(5-fluoro-2-(2,6-diazaspiro[3.4]octan-2-yl)pyrimidin-4-yl)-1H-indazol-5-amine] | -7.8%
Fc1cnc(N2CCCC(C3CCCNC3)C2)nc1Nc1ccc2[nH]ncc2c1 (stereo not shown) [Example 171, N-(2-([3,3′-bipiperidin]-1-yl)-5-fluoropyrimidin-4-yl)-1H-indazol-5-amine] | -9.6%
c1cc(Nc2ccc3[nH]ncc3c2)nc(N2CC3(CCNC3)C2)n1 [Example 75, N-(2-(2,6-diazaspiro[3.4]octan-2-yl)pyrimidin-4-yl)-1H-indazol-5-amine] | -8.7%
c1cc(Nc2ccc3[nH]ncc3c2)nc(N2C[C@@H]3CN[C@@H]3C2)n1 [Example 81, N-(2-((1S,5S)-3,6-diazabicyclo[3.2.0]heptan-3-yl)pyrimidin-4-yl)-1H-indazol-5-amine] | 13.2%
Cc1cc(Nc2ccc3[nH]ncc3c2)nc(N2CCCC(C3CCCNC3)C2)n1 (stereo not shown) [Example 136, N-(2-([3,3′-bipiperidin]-1-yl)-6-methylpyrimidin-4-yl)-1H-indazol-5-amine] | 1.1%
Cc1cc(Nc2ccc3[nH]ncc3c2)nc(N2CCC3(CC2)CNC3)n1 [Example 121, N-(6-methyl-2-(2,7-diazaspiro[3.5]nonan-7-yl)pyrimidin-4-yl)-1H-indazol-5-amine] | -7.3%
Fc1cnc(N2CC3(CCNCC3)C2)nc1Nc1ccc2[nH]ncc2c1 [Example 164, N-(5-fluoro-2-(2,7-diazaspiro[3.5]nonan-2-yl)pyrimidin-4-yl)-1H-indazol-5-amine] | -8.3%

Same assay, conditions: Rattus norvegicus, A7R5, A7R5 cells, 10 μM compound; read-out: pMLC % inh A7R5 @ [conc]

Structure (SMILES) | inhibition at 10 µM
Cc1nc(N2CCNC(c3ccccc3)CC2)nc(Nc2ccc3[nH]ncc3c2)c1C (stereo not shown) [Example 21, N-(5,6-dimethyl-2-(5-phenyl-1,4-diazepan-1-yl)pyrimidin-4-yl)-1H-indazol-5-amine] | 21.1%
Clc1cnc(N2CCNC(c3ccccc3)CC2)nc1Nc1ccc2[nH]ncc2c1 (stereo not shown) [Example 184, N-(5-chloro-2-(5-phenyl-1,4-diazepan-1-yl)pyrimidin-4-yl)-1H-indazol-5-amine] | 34.1%
CC1(C)CN(c2nccc(Nc3ccc4[nH]ncc4c3)n2)CCN1 [Example 227, N-(2-(3,3-dimethylpiperazin-1-yl)pyrimidin-4-yl)-1H-indazol-5-amine] | 83.4%
CC(C)C1CN(c2ncc(F)c(Nc3ccc4[nH]ncc4c3)n2)CCCN1 (stereo not shown) [Example 144, N-(5-fluoro-2-(3-isopropyl-1,4-diazepan-1-yl)pyrimidin-4-yl)-1H-indazol-5-amine] | 45.6%
c1ccc(CC2CN(c3nc4c(c(Nc5ccc6[nH]ncc6c5)n3)COC4)CCCN2)cc1 (stereo not shown) [Example 2, 2-(3-benzyl-1,4-diazepan-1-yl)-N-(1H-indazol-5-yl)-5,7-dihydrofuro[3,4-d]pyrimidin-4-amine] | 72.4%
Cc1cc(Nc2ccc3[nH]ncc3c2)nc(N2CCNC(c3ccccc3)CC2)n1 (stereo not shown) [Example 108, N-(6-methyl-2-(5-phenyl-1,4-diazepan-1-yl)pyrimidin-4-yl)-1H-indazol-5-amine] | 47.3%
c1cc(Nc2cnc3[nH]ccc3c2)nc(N2CCNCC2)n1 [Example 369, N-(2-(piperazin-1-yl)pyrimidin-4-yl)-1H-pyrrolo[2,3-b]pyridin-5-amine] | 0.9%
c1cc(Nc2ccc(-c3ccnc4[nH]cnc34)cc2)nc(N2CCNCC2)n1 [Example 366, N-(4-(3H-imidazo[4,5-b]pyridin-7-yl)phenyl)-2-(piperazin-1-yl)pyrimidin-4-amine] | 4.95%
c1cc(Nc2ccc(-c3cn[nH]c3)cc2)nc(N2C3CCC2CNC3)n1 [Example 257, N-(4-(1H-pyrazol-4-yl)phenyl)-2-(3,8-diazabicyclo[3.2.1]octan-8-yl)pyrimidin-4-amine] | 85.6%
CC1(C)CN(c2nccc(Nc3ccc(-c4cn[nH]c4)cc3)n2)CCN1 [Example 255, N-(4-(1H-pyrazol-4-yl)phenyl)-2-(3,3-dimethylpiperazin-1-yl)pyrimidin-4-amine] | 72%
CC(C)C1CCN(c2ncc(Cl)c(Nc3ccc4[nH]ncc4c3)n2)CCN1 (stereo not shown) [Example 182, N-(5-chloro-2-(5-isopropyl-1,4-diazepan-1-yl)pyrimidin-4-yl)-1H-indazol-5-amine] | 30.2%
Clc1cnc(N2CCCNC(c3ccccc3)C2)nc1Nc1ccc2[nH]ncc2c1 (stereo not shown) [Example 183, N-(5-chloro-2-(3-phenyl-1,4-diazepan-1-yl)pyrimidin-4-yl)-1H-indazol-5-amine] | 43.1%
CCC1CN(c2ncc(C)c(Nc3ccc4[nH]ncc4c3)n2)CCN1 (stereo not shown) [Example 99, N-(2-(3-ethylpiperazin-1-yl)-5-methylpyrimidin-4-yl)-1H-indazol-5-amine] | 29.6%
Cc1nc(N2CCCNC(C(C)C)C2)nc(Nc2ccc3[nH]ncc3c2)c1C (stereo not shown) [Example 16, N-(2-(3-isopropyl-1,4-diazepan-1-yl)-5,6-dimethylpyrimidin-4-yl)-1H-indazol-5-amine] | 32.1%
Cc1cnc(N2CCCNCC2)nc1Nc1ccc2[nH]ncc2c1 [Example 3, N-(2-(1,4-diazepan-1-yl)-5-methylpyrimidin-4-yl)-1H-indazol-5-amine] | 54.4%
O=c1[nH]c2ccc(Nc3ccnc(N4CCNCC4)n3)cc2[nH]1 [Example 364, 5-((2-(piperazin-1-yl)pyrimidin-4-yl)amino)-1,3-dihydro-2H-benzo[d]imidazol-2-one] | 6.18%
Cc1nc(N2CC(C)NC(C)C2)nc(Nc2ccc3[nH]ncc3c2)c1C (stereo not shown) [Example 24, N-(2-(3,5-dimethylpiperazin-1-yl)-5,6-dimethylpyrimidin-4-yl)-1H-indazol-5-amine] | 22.6%
c1cc(Nc2ccc(-c3nnco3)cc2)nc(N2CCNCC2)n1 [Example 367, N-(4-(1,3,4-oxadiazol-2-yl)phenyl)-2-(piperazin-1-yl)pyrimidin-4-amine] | 7.2%

Same assay, conditions: Rattus norvegicus, A7R5, A7R5 cells, ppMlc (T18/S19)

IC50 | Structure (SMILES)
2500 nM | c1ccc(CC2CN(c3nc4c(c(Nc5ccc6[nH]ncc6c5)n3)COC4)CCCN2)cc1 (stereo not shown) [Example 2, 2-(3-benzyl-1,4-diazepan-1-yl)-N-(1H-indazol-5-yl)-5,7-dihydrofuro[3,4-d]pyrimidin-4-amine]
1360 nM | CC1(C)CN(c2nccc(Nc3ccc(-c4cn[nH]c4)cc3)n2)CCN1 [Example 255, N-(4-(1H-pyrazol-4-yl)phenyl)-2-(3,3-dimethylpiperazin-1-yl)pyrimidin-4-amine]

Structure (SMILES) | IC50
c1cc(Nc2ccc(-c3cn[nH]c3)cc2)nc(N2C3CCC2CNC3)n1 [Example 257, N-(4-(1H-pyrazol-4-yl)phenyl)-2-(3,8-diazabicyclo[3.2.1]octan-8-yl)pyrimidin-4-amine] | 2070 nM
